Read-outs that look alike come from different tables or passages of the source.
What was measured:
[1] = system: panel of 55 breast cancer cell lines; experiment: Cell growth inhibition assay (Cell Titer Glo, 72 h, 9 doses; GI50, TGI, LC50); format: cell-based, human; conditions: Homo sapiens, read-out: GI50 (converted)
[2] = system: luminal, basal, claudin-low and ERBB2AMP breast cancer cell lines; experiment: Associations of clinically relevant subtypes and response (non-parametric ANOVA or t-test on GI50 ranks); format: cell-based, human
How it was run: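 Significance was set at FDR p<0.20 after combining p-values across three test sets. Subtype–response associations came from rank-based non-parametric ANOVA or t-tests on GI50. For three-class comparisons, post-hoc tests of each group against the rest identified the most sensitive group, with FDR correction.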

`CC(=O)O[C@@]12CO[C@@H]1C[C@H](O)[C@@]1(C)C(=O)[C@H](O)C3=C(C)[C@@H](OC(=O)[C@H](O)[C@@H](NC(=O)OC(C)(C)C)c4ccccc4)C[C@@](O)([C@@H](OC(=O)c4ccccc4)[C@H]21)C3(C)C` [Docetaxel] showed a GI50 ([1]; 600MPE cell line, censored GI50 values) of 97.7 nM, a GI50 ([1]; AU565, AU565 cell line, censored GI50 values) of 5.25 nM and a GI50 ([1]; AU565, cell line AU565) of 5.25 nM. It also gave a GI50 ([1]; BT-474, BT474 cell line, censored GI50 values) of 6.31 nM, a GI50 ([1]; BT-474, cell line BT474) of 6.31 nM and a GI50 ([1]; BT-483, BT483 cell line, censored GI50 values) of 23.4 nM. For the same compound, the GI50 ([1]; BT-483, cell line BT483) was 23.4 nM, the GI50 ([1]; CAMA-1, CAMA1 cell line, censored GI50 values) was 5.62 nM and the GI50 ([1]; CAMA-1, cell line CAMA1) was 5.62 nM. For the same compound, the GI50 ([1]; HCC38, HCC38 cell line, censored GI50 values) was 2.04 nM, the GI50 ([1]; HCC38, cell line HCC38) was 2.04 nM and the GI50 ([1]; HCC70, HCC70 cell line, censored GI50 values) was 5.13 nM. For the same compound, the GI50 ([1]; HCC70, cell line HCC70) was 5.13 nM, the GI50 ([1]; HCC202, HCC202 cell line, censored GI50 values) was 3.72 nM and the GI50 ([1]; HCC202, cell line HCC202) was 3.72 nM. The GI50 ([1]; HCC1143, HCC1143 cell line, censored GI50 values) was 11 nM, the GI50 ([1]; HCC1143, cell line HCC1143) was 11 nM and the GI50 ([1]; HCC1187, HCC1187 cell line, censored GI50 values) was 2.51 nM. The GI50 ([1]; HCC1187, cell line HCC1187) was 2.51 nM, the GI50 ([1]; HCC1395, HCC1395 cell line, censored GI50 values) was 5.62 nM and the GI50 ([1]; HCC1395, cell line HCC1395) was 5.62 nM. The GI50 ([1]; HCC1419, HCC1419 cell line, censored GI50 values) was 16.6 nM, the GI50 ([1]; HCC1419, cell line HCC1419) was 16.6 nM and the GI50 ([1]; HCC1428, HCC1428 cell line, censored GI50 values) was 5010 nM. For the same compound, the GI50 ([1]; HCC1428, cell line HCC1428) was 5010 nM, the GI50 ([1]; HCC1500, HCC1500 cell line, censored GI50 values) was 2.75 nM and the GI50 ([1]; HCC1500, cell line HCC1500) was 2.75 nM. The GI50 ([1]; HCC1806, HCC1806 cell line, censored GI50 values) was 2.57 nM, the GI50 ([1]; HCC1806, cell line HCC1806) was 2.57 nM and the GI50 ([1]; HCC1954, HCC1954 cell line, censored GI50 values) was 1.66 nM. The GI50 ([1]; HCC1954, cell line HCC1954) was 1.66 nM, the GI50 ([1]; HCC2185 cell line, censored GI50 values) was 3.02 nM and the GI50 ([1]; HCC3153 cell line, censored GI50 values) was 9.77 nM. The GI50 ([1]; LY2 cell line, censored GI50 values) was 4.27 nM, the GI50 ([1]; MCF7, MCF7 cell line, censored GI50 values) was 12.3 nM and the GI50 ([1]; MCF7, cell line MCF7) was 12.3 nM. The GI50 ([1]; MDA-MB-134-VI, MDAMB134VI cell line, censored GI50 values) was 23.4 nM, the GI50 ([1]; MDA-MB-175-VII, MDAMB175VII cell line, censored GI50 values) was 15.8 nM and the GI50 ([1]; MDA-MB-231, MDAMB231 cell line, censored GI50 values) was 2.82 nM. It also gave a GI50 ([1]; MDA-MB-231, cell line MDAMB231) of 2.82 nM, a GI50 ([1]; MDA-MB-361, MDAMB361 cell line, censored GI50 values) of 5.62 nM and a GI50 ([1]; MDA-MB-361, cell line MDAMB361) of 5.62 nM. For the same compound, the GI50 ([1]; MDA-MB-415, MDAMB415 cell line, censored GI50 values) was 2.88 nM, the GI50 ([1]; MDA-MB-415, cell line MDAMB415) was 2.88 nM and the GI50 ([1]; MDA-MB-436, MDAMB436 cell line, censored GI50 values) was 17 nM. For the same compound, the GI50 ([1]; MDA-MB-436, cell line MDAMB436) was 17 nM, the GI50 ([1]; MDA-MB-453, MDAMB453 cell line, censored GI50 values) was 4.37 nM and the GI50 ([1]; MDA-MB-453, cell line MDAMB453) was 4.37 nM. The GI50 ([1]; MDA-MB-468, MDAMB468 cell line, censored GI50 values) was 2.88 nM, the GI50 ([1]; MDA-MB-468, cell line MDAMB468) was 2.88 nM and the GI50 ([1]; SK-BR-3, SKBR3 cell line, censored GI50 values) was 7.59 nM. The GI50 ([1]; SK-BR-3, cell line SKBR3) was 7.59 nM, the GI50 ([1]; SUM52PE, SUM52PE cell line, censored GI50 values) was 1.82 nM and the GI50 ([1]; SUM52PE, cell line SUM52PE) was 1.82 nM. For the same compound, the GI50 ([1]; SUM149PT, SUM149PT cell line, censored GI50 values) was 1.74 nM, the GI50 ([1]; SUM149PT, cell line SUM149PT) was 1.74 nM and the GI50 ([1]; SUM185PE, SUM185PE cell line, censored GI50 values) was 5010 nM. The GI50 ([1]; SUM185PE, cell line SUM185PE) was 5010 nM, the GI50 ([1]; SUM1315MO2, SUM1315MO2 cell line, censored GI50 values) was 2.95 nM and the GI50 ([1]; SUM-159-PT, SUM159PT cell line, censored GI50 values) was 4.57 nM. For the same compound, the GI50 ([1]; SUM-159-PT, cell line SUM159PT) was 4.57 nM, the GI50 ([1]; UACC-812, UACC812 cell line, censored GI50 values) was 3.24 nM and the GI50 ([1]; UACC-812, cell line UACC812) was 3.24 nM. It also gave a GI50 ([1]; UACC-893, UACC893 cell line, censored GI50 values) of 11.5 nM, a GI50 ([1]; UACC-893, cell line UACC893) of 11.5 nM and a GI50 ([1]; ZR-75-1, ZR751 cell line, censored GI50 values) of 28.2 nM. The GI50 ([1]; ZR-75-1, cell line ZR751) was 28.2 nM, the GI50 ([1]; ZR-75-30, ZR7530 cell line, censored GI50 values) was 3.98 nM and the GI50 ([1]; ZR-75-30, cell line ZR7530) was 3.98 nM. For the same compound, the GI50 ([1]; ZR-75B, ZR75B cell line, censored GI50 values) was 15.5 nM, the GI50 ([1]; ZR-75B, cell line ZR75B) was 15.5 nM and the GI50 ([1]; cell line 600MPE) was 97.7 nM. It also gave a GI50 ([1]; cell line HCC2185) of 3.02 nM, a GI50 ([1]; cell line HCC3153) of 9.77 nM and a GI50 ([1]; cell line LY2) of 4.27 nM. For the same compound, the GI50 ([1]; cell line MDAMB134V) was 23.4 nM, the GI50 ([1]; cell line MDAMB175V) was 15.8 nM and the GI50 ([1]; cell line SUM1315MO) was 2.95 nM. For the same compound, the “subtype-specific response (sensitivity by transcriptional subtype)” value ([2]; GI50 across subtypes) was “preferential activity in basal and/or claudin-low cell lines” and the Subtype specificity ([2]; Table 6, most sensitive subtype, FDR p<0.20) was “Basal”.

Reference: patent publication US10770169B2, “Method of providing a treatment to a subject based on a dynamic pathway map” (THE REGENTS OF THE UNIVERSITY OF CALIFORNIA, priority 2010, dated 2020)
